Results: publication PMC12278645, “Design, synthesis, and antitumor activity of novel thioheterocyclic nucleoside derivatives by suppressing the c-MYC pathway” (Acta Pharmaceutica Sinica. B, 2025)

Legend:
[1] = system: HeLa cells; assay: CCK-8 anti-proliferation assay, HeLa; assay type: cell-based, human
Experimental: (§1) Tumor cell anti-proliferation activities were determined by cell counting kit-8 (CCK-8) assay.
(§2) MCF-7, A375, and HeLa cells were cultured in DMEM, HCT116 cells were cultured in McCoy's 5A medium, and DU145 and CT26 were cultured in RPMI 1640 with 10% FBS, 1% penicillin-streptomycin solution (10,000 U/mL penicillin and 10,000 μg/mL streptomycin) at 37 °C under 5% CO2. The cells were seeded in 96-well plates (4 × 10^3 cells/well) overnight and then treated with various concentrations (1–50 μmol/L) of the compound. After 48 h, the cell viability was measured by CCK-8 assay. The absorbance of each well was measured using a microplate reader (Multiskan FC, Thermo Fisher Scientific, Massachusetts, USA) at 450 nm wavelength. Assays were performed in triplicate. Compound concentrations that inhibited cell growth by 50% (IC50) were calculated from the dose–response curves of each cell line. Data are mean ± SD values from three independent experiments.

[2] = system: HCT116 cells; assay: CCK-8 anti-proliferation assay, HCT116; assay type: cell-based, human
Experimental: as §1, §2

[3] = Homo sapiens, HeLa, 48 h, CCK-8, 48 h, mean ± SD, three independent experiments
[4] = Homo sapiens, HCT-116, 48 h, CCK-8, 48 h, mean ± SD, three independent experiments
[5] = CCK-8, 48 h, mean ± SD, three independent experiments

Structure (SMILES)	IC50 [1, 3] [µM]	IC50 [2, 4] [µM]	IC50 [1, 5] [µM]	IC50 [2, 5] [µM]	further results
CCOC(=O)[C@]1(n2cnc3c(SC)ncnc32)CSC[C@H]1O (relative stereo) [21a]	31 ± 2.18	44.1 ± 1.36	–	–	–
CCOC(=O)[C@]1(n2cnc3c(SC)ncnc32)CSC[C@@H]1O (relative stereo) [21b]	8.83 ± 0.78	32.7 ± 1.17	–	–	–
CCOC(=O)[C@]1(n2cnc3c(SCC)ncnc32)CSC[C@H]1O (relative stereo) [22a]	5.46 ± 1.02	7.56 ± 1.09	–	–	–
CCOC(=O)[C@]1(n2cnc3c(SCC)ncnc32)CSC[C@@H]1O (relative stereo) [22b]	3.27 ± 0.82	2.42 ± 0.82	–	–	–
CCOC(=O)[C@]1(n2cnc3c(SC(C)C)ncnc32)CSC[C@H]1O (relative stereo) [23a]	8.45 ± 1.23	4.85 ± 1.02	–	–	–
CCOC(=O)[C@]1(n2cnc3c(SC(C)C)ncnc32)CSC[C@@H]1O (relative stereo) [23b]	3.43 ± 0.76	4.01 ± 0.88	–	–	–
C#CCSc1ncnc2c1ncn2[C@@]1(C(=O)OCC)CSC[C@H]1O (relative stereo) [24a]	15.9 ± 2.12	1.81 ± 0.12	–	–	–
C#CCSc1ncnc2c1ncn2[C@@]1(C(=O)OCC)CSC[C@@H]1O (relative stereo) [24b]	14.9 ± 2.01	1.66 ± 0.13	–	–	–
CCCCSc1ncnc2c1ncn2[C@@]1(C(=O)OCC)CSC[C@H]1O (relative stereo) [25a]	9.89 ± 1.02	9.07 ± 0.49	–	–	–
CCCCSc1ncnc2c1ncn2[C@@]1(C(=O)OCC)CSC[C@@H]1O (relative stereo) [25b]	6.32 ± 0.82	2.84 ± 0.27	–	–	–
CCCCCSc1ncnc2c1ncn2[C@@]1(C(=O)OCC)CSC[C@H]1O (relative stereo) [26a]	6.07 ± 0.78	11.9 ± 1.32	–	–	–
CCCCCSc1ncnc2c1ncn2[C@@]1(C(=O)OCC)CSC[C@@H]1O (relative stereo) [26b]	> 50	11.8 ± 1.27	–	–	–
CCOC(=O)[C@]1(n2cnc3c(SCc4ccccc4)ncnc32)CSC[C@H]1O (relative stereo) [27a]	22.3 ± 2.09	14.4 ± 1.64	–	–	–
CCOC(=O)[C@]1(n2cnc3c(SCc4ccccc4)ncnc32)CSC[C@@H]1O (relative stereo) [27b]	23.9 ± 2.38	5.65 ± 1.4	–	–	–
CCOC(=O)[C@]1(n2cnc3c(Sc4cccc(F)c4)ncnc32)CSC[C@H]1O (relative stereo) [28a]	9.47 ± 1.02	12.8 ± 1.08	–	–	–
CCOC(=O)[C@]1(n2cnc3c(Sc4cccc(F)c4)ncnc32)CSC[C@@H]1O (relative stereo) [28b]	25.8 ± 1.35	15.7 ± 2	–	–	–
CCOC(=O)[C@]1(n2cnc3c(Sc4ccc(C(C)(C)C)cc4)ncnc32)CSC[C@H]1O (relative stereo) [29a]	21.2 ± 2.37	7.6 ± 1.22	–	–	–
CCOC(=O)[C@]1(n2cnc3c(Sc4ccc(C(C)(C)C)cc4)ncnc32)CSC[C@@H]1O (relative stereo) [29b]	15.1 ± 2.08	6.78 ± 1.22	–	–	–
CCOC(=O)[C@]1(n2cnc3c(SCCCF)ncnc32)CSC[C@H]1O (relative stereo) [30a]	10.8 ± 1.07	19.1 ± 1.37	–	–	–
CCOC(=O)[C@]1(n2cnc3c(SCCCF)ncnc32)CSC[C@@H]1O (relative stereo) [30b]	12.1 ± 1.12	10.9 ± 1.01	–	–	–

Structure (SMILES)	IC50 [1, 3] [µM]	IC50 [2, 4] [µM]	IC50 [1, 5] [µM]	IC50 [2, 5] [µM]	further results
CCOC(=O)[C@]1(n2cnc3c(SCCCCl)ncnc32)CSC[C@H]1O (relative stereo) [31a]	> 50	> 50	–	–	–
CCOC(=O)[C@]1(n2cnc3c(SCCCCl)ncnc32)CSC[C@@H]1O (relative stereo) [31b]	> 50	> 50	–	–	–
CCOC(=O)C1(n2cnc3c(Cl)ncnc32)CSCC1O (single isomer, unassigned) [2a]	–	–	> 50	48.9 ± 2.12	–
CCOC(=O)C1(n2cnc3c(Cl)ncnc32)CSCC1O (single isomer, unassigned) [2b]	–	–	> 50	> 50	–
CCOC(=O)C1(n2cnc3c(Br)ncnc32)CSCC1O (single isomer, unassigned) [3a]	–	–	> 50	8.97 ± 1.03	–
CCOC(=O)C1(n2cnc3c(Br)ncnc32)CSCC1O (single isomer, unassigned) [3b]	–	–	> 50	> 50	–
CCOC(=O)C1(n2cnc3c(N(C)C)ncnc32)CSCC1O (single isomer, unassigned) [4a]	–	–	9.81 ± 1.12	17.4 ± 1.01	–
CCOC(=O)C1(n2cnc3c(N(C)C)ncnc32)CSCC1O (single isomer, unassigned) [4b]	–	–	12 ± 1.57	49.5 ± 2.02	–
CCOC(=O)C1(n2cnc3c(N4CCOCC4)ncnc32)CSCC1O (single isomer, unassigned) [9a]	–	–	10.8 ± 1.03	> 50	–
CCOC(=O)C1(n2cnc3c(N4CCOCC4)ncnc32)CSCC1O (single isomer, unassigned) [9b]	–	–	10.2 ± 1.05	17.1 ± 1.12	–
CCOC(=O)C1(n2cnc3c(N4CCSCC4)ncnc32)CSCC1O (single isomer, unassigned) [10a]	–	–	45.8 ± 2.12	18.8 ± 1.04	–
CCOC(=O)C1(n2cnc3c(N4CCSCC4)ncnc32)CSCC1O (single isomer, unassigned) [10b]	–	–	10.2 ± 1.93	10.1 ± 1.01	–
CCOC(=O)C1(n2cnc3c(N4CCC(C)CC4)ncnc32)CSCC1O (single isomer, unassigned) [11a]	–	–	21.8 ± 2.42	1.44 ± 0.13	–
CCOC(=O)C1(n2cnc3c(N4CCC(C)CC4)ncnc32)CSCC1O (single isomer, unassigned) [11b]	–	–	23.4 ± 2.76	0.91 ± 0.27	–
CCOC(=O)C1(n2cnc3c(N4CCC(F)CC4)ncnc32)CSCC1O (single isomer, unassigned) [12a]	–	–	44.5 ± 3.12	1.64 ± 0.27	–
CCOC(=O)C1(n2cnc3c(N4CCC(F)CC4)ncnc32)CSCC1O (single isomer, unassigned) [12b]	–	–	40.9 ± 3.08	3.92 ± 0.87	–
CCOC(=O)C1(n2cnc3c(N4CCC(C(F)(F)F)CC4)ncnc32)CSCC1O (single isomer, unassigned) [13a]	–	–	42 ± 2.12	5.89 ± 1.02	–
CCOC(=O)C1(n2cnc3c(N4CCC(C(F)(F)F)CC4)ncnc32)CSCC1O (single isomer, unassigned) [13b]	–	–	38.7 ± 2.09	2.37 ± 0.36	–
CCOC(=O)C1(n2cnc3c(N4CCC(Cl)CC4)ncnc32)CSCC1O (single isomer, unassigned) [14a]	–	–	12.1 ± 1.32	15 ± 2.16	–
CCOC(=O)C1(n2cnc3c(N4CCC(Cl)CC4)ncnc32)CSCC1O (single isomer, unassigned) [14b]	–	–	14.3 ± 1.58	18 ± 2.37	–

Structure (SMILES)	IC50 [1, 3] [µM]	IC50 [2, 4] [µM]	IC50 [1, 5] [µM]	IC50 [2, 5] [µM]	further results
CCOC(=O)C1(n2cnc3c(N4CCC(N5CCOCC5)CC4)ncnc32)CSCC1O (single isomer, unassigned) [15a]	–	–	13.7 ± 1.33	43.9 ± 2.11	–
CCOC(=O)C1(n2cnc3c(N4CCC(N5CCOCC5)CC4)ncnc32)CSCC1O (single isomer, unassigned) [15b]	–	–	7.71 ± 1.02	32 ± 2.09	–
CCOC(=O)C1(n2cnc3c(N4CCC(Cc5ccccc5F)CC4)ncnc32)CSCC1O (single isomer, unassigned) [17a]	–	–	17 ± 1.03	4.4 ± 1.02	–
CCOC(=O)C1(n2cnc3c(N4CCC(Cc5ccccc5F)CC4)ncnc32)CSCC1O (single isomer, unassigned) [17b]	–	–	17 ± 1.12	4.49 ± 1.13	–
CCOC(=O)C1(n2cnc3c(N4CCCCCC4)ncnc32)CSCC1O (single isomer, unassigned) [19a]	–	–	22.8 ± 1.22	1.19 ± 0.09	–
CCOC(=O)C1(n2cnc3c(N4CCCCCC4)ncnc32)CSCC1O (single isomer, unassigned) [19b]	–	–	46.1 ± 2.46	3.05 ± 0.67	–
CCOC(=O)C1(n2cnc3c(N4CCCC4)ncnc32)CSCC1O (single isomer, unassigned) [20a]	–	–	11.4 ± 1.42	39.1 ± 1.35	–
CCOC(=O)C1(n2cnc3c(N4CCCC4)ncnc32)CSCC1O (single isomer, unassigned) [20b]	–	–	12.2 ± 1.28	22.8 ± 1.04	–
CCOC(=O)C1(n2cnc3c(N4CCCCC4)nc(N)nc32)CSCC1O (single isomer, unassigned) [32a]	–	–	5.35 ± 1.05	0.72 ± 0.08	–
CCOC(=O)C1(n2cnc3c(N4CCCCC4)nc(N)nc32)CSCC1O (single isomer, unassigned) [32b]	–	–	5.37 ± 1.09	0.81 ± 0.12	–
CCOC(=O)C1(n2cnc3c(N4CCCCC4)nc(Cl)nc32)CSCC1O (single isomer, unassigned) [34a]	–	–	4.86 ± 0.65	7.2 ± 0.39	–
CCOC(=O)C1(n2cnc3c(N4CCCCC4)nc(Cl)nc32)CSCC1O (single isomer, unassigned) [34b]	–	–	4.05 ± 0.37	4.3 ± 0.51	–
CCCSc1nc(N)nc2c1ncn2C1(C(=O)OCC)CSCC1O (single isomer, unassigned) [35a]	–	–	9.44 ± 1.27	0.73 ± 0.11	–
CCCSc1nc(N)nc2c1ncn2C1(C(=O)OCC)CSCC1O (single isomer, unassigned) [35b]	–	–	8.49 ± 1.02	0.65 ± 0.21	–
CCCSc1nc(Cl)nc2c1ncn2C1(C(=O)OCC)CSCC1O (single isomer, unassigned) [37a]	–	–	1.58 ± 0.36	3.81 ± 0.13	–
CCCSc1nc(Cl)nc2c1ncn2C1(C(=O)OCC)CSCC1O (single isomer, unassigned) [37b]	–	–	5.98 ± 1.25	2.7 ± 0.04	–
CCOC(=O)C1(n2cnc3c(Cl)nc(N)nc32)CSCC1O (single isomer, unassigned) [38a]	–	–	–	–	IC50 ([1]; Table S3, CCK-8, mean ± SD): 25.6 ± 2.13 µM; IC50 ([2]; Table S3, CCK-8, mean ± SD): 30.5 ± 1.42 µM
CCOC(=O)C1(n2cnc3c(Cl)nc(N)nc32)CSCC1O (single isomer, unassigned) [38b]	–	–	–	–	IC50 ([1]; Table S3, CCK-8, mean ± SD): 22.5 ± 2.17 µM; IC50 ([2]; Table S3, CCK-8, mean ± SD): 10.6 ± 1.02 µM
